From paper PMC8272913 (ACS chemical neuroscience, 2019) come the findings set out here.

Read-outs that look alike come from different tables or passages of the source.

One may read the Ki as a dissociation constant, usually derived from enzyme kinetics or from competition with a known ligand.

Assay [1] concerns the target rat SERT (rSERT) (Rattus norvegicus, UniProt P31652). Description: Inhibition of [3H]citalopram binding to rSERT from rat brain tissue. The following applies: for Ki: read-out: Ki, binding affinity for rSERT; for fold decrease in rSERT binding affinity relative to paroxetine: vs paroxetine.
The target of assay [2] is hSERT (Homo sapiens, UniProt P31645). Format: binding.
In assay [3] the target is T1, hSERT-A169D (Homo sapiens, UniProt P31645, A169D). Format: cell-based.
In assay [4] the target is T2, hSERT WT (Homo sapiens, UniProt P31645). The format is cell-based. The following applies: read-out: Ki (nM) 5-HT Transport WT.
Assay [5] addresses T2, hSERT WT. Particulars: read-out: Ki (nM) RTI-55 Binding WT.
Assay [6] addresses T1, hSERT-A169D. The format is binding.

Sequence of rat SERT (rSERT) (P31652 whole entry): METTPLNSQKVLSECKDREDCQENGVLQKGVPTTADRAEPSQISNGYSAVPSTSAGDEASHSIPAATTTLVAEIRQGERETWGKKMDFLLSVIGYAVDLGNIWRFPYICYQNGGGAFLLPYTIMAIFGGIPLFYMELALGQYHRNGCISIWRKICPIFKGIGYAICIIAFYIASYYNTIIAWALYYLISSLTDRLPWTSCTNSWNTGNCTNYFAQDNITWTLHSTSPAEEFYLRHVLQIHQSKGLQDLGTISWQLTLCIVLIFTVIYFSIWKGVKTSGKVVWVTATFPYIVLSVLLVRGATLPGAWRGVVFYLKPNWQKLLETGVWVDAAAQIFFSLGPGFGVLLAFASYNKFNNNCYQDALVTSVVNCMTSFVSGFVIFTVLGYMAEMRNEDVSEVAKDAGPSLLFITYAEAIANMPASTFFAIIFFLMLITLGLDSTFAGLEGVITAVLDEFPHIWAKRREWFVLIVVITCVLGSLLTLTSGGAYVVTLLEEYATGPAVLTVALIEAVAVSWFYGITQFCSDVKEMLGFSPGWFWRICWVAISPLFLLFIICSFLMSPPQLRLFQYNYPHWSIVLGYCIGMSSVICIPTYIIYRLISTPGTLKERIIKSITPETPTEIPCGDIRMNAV

Regarding `CCCCCCN1CCC(c2ccc(F)cc2)C(COc2ccc3c(c2)OCO3)C1` (centres unmarked) [compound 1], in assay [1], the inhibition constant (Ki) was found to be 395 nM.
The same measure, in the same setting: to `CCCN1CCC(c2ccc(F)cc2)C(COc2ccc3c(c2)OCO3)C1` (centres unmarked) [compound 2] belongs 98 nM; to `Fc1ccc(C2CCN(Cc3ccc(Br)cc3)CC2COc2ccc3c(c2)OCO3)cc1` (centres unmarked) [compound 3], 204 nM.
With `O=C(Cc1ccc(Br)cc1)N1CCC(c2ccc(F)cc2)C(COc2ccc3c(c2)OCO3)C1` (centres unmarked) [compound 6], the Ki in assay [1] was found to be 3820 nM.
In the case of `Brc1ccc([C@@H]2CCNC[C@H]2COc2ccc3c(c2)OCO3)cc1` [compound 13, 4-bromoparoxetine], the Ki came to 4.9 nM in assay [1]; 0.32 ± 0.028 nM in assay [2] (read-out: Ki, binding affinity); 6.37 ± 0.74 nM in assay [3] (read-out: Ki (nM) 5-HT Transport A169D, hSERT A169D); 2.3 ± 0.27 nM in assay [4]; 1.07 ± 0.3 nM in assay [5]; 1.72 ± 0.39 nM in assay [6] (read-out: Ki (nM) RTI-55 Binding A169D, hSERT A169D). Besides, the “fold decrease in rSERT binding affinity relative to paroxetine” value in assay [1] was 16 fold. Besides, in assay [2], the “fold reduction in binding affinity as compared to paroxetine” value is ~ 4 fold. In addition, the “5-HT Transport Sensitivity toward the A169D mutation” value in assay [3] (A169D versus WT) is given as 2.8. The “RTI-55 Binding Sensitivity toward the A169D mutation” value in assay [6] (A169D versus WT) came out at 1.6.
Consider `CN1CC[C@@H](c2ccc(F)cc2)[C@H](COc2ccc3c(c2)OCO3)C1` [compound 14], for which, in assay [1], the Ki came out at 2.95 nM and the “fold decrease in rSERT binding affinity relative to paroxetine” value was determined as 9.5 fold.
With `c1ccc([C@@H]2CCNC[C@H]2COc2ccc3c(c2)OCO3)cc1` [compound 15, desfluoroparoxetine], the Ki in assay [1] amounted to 0.557 nM.
